Source: paper PMC11350758, “Development of Xanthoangelol-Derived Compounds with Membrane-Disrupting Effects against Gram-Positive Bacteria” (Antibiotics, 2024)
Values after ≈ are worked out from the molar mass of the structure shown.

Experiments:
Type in all cases: cell-based
[1] = test system: Bacillus subtilis ATCC9372, penicillin-susceptible strain; experiment: MIC, broth microdilution; conditions: Bacillus subtilis ATCC9372; read-out: MIC B. s. 9372
How it was run: (§1)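 Bacteria (suspension at 10^6 CFU/mL, mixed in equal volume) were exposed to twofold serially diluted compounds in TSB broth at 37 °C for 24 h to give minimum inhibitory concentrations. All tests were run three times.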

[2] = test system: Enterococcus faecalis ATCC29212, vancomycin-susceptible strain; experiment: MIC, broth microdilution; conditions: Enterococcus faecalis ATCC29212; read-out: MIC E. f. 29212
How it was run: as §1

[3] = test system: Escherichia coli ATCC25922, penicillin-susceptible strain; experiment: MIC, broth microdilution; conditions: Escherichia coli ATCC25922; read-out: MIC E. c. 25922
How it was run: as §1

[4] = test system: Staphylococcus aureus ATCC31007, penicillin-resistant strain; experiment: MIC, broth microdilution; conditions: Staphylococcus aureus ATCC31007; read-out: MIC S. a. 31007
How it was run: as §1

[5] = test system: Enterococcus faecalis ATCC51299, vancomycin-resistant strain; experiment: MIC, broth microdilution; conditions: Enterococcus faecalis ATCC51299, vancomycin-resistant; read-out: MIC E. f. 51299
How it was run: (§2)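 Broth microdilution per CLSI: 2-fold serial compound dilutions in TSB broth, mixed with an equal volume of bacterial suspension at 10^6 CFU/mL. Incubated 37 °C for 24 h; experiments repeated three times.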

[6] = test system: Enterococcus faecium ATCC51559, vancomycin-resistant strain; experiment: MIC, broth microdilution; conditions: Enterococcus faecium ATCC51559, vancomycin-resistant; read-out: MIC E. f. 51559
How it was run: as §2

S. aureus ATCC43300 = experiment: Bactericidal time-kill assay; conditions: 8× MIC, 16 μg/mL
Protocol: Natural AMPs have rapid bactericidal properties, and in order to examine whether active compound 9h have similar rapid bactericidal properties, the time-kill kinetics of 9h were carried out to test the bactericidal action against S. aureus ATCC4330 at four different concentrations.
S. aureus ATCC43300 was cultured at 37 °C for 6 h and diluted to 1×10^6 CFU/mL. […] At each time point, the bacterial suspension (20 μL) was diluted in PBS, and the number of bacterial colonies was measured. All biological experiments were repeated three times.

[7] = test system: preformed S. aureus ATCC43300 biofilm; experiment: Biofilm disruption assay (crystal violet); conditions: biofilm grown for 24 h
Protocol: Bacterial biofilms created by the aggregation of bacteria is considered as one of the main reasons for the development of drug resistance. […] Subsequently, we further assessed the efficiency of 9h to eradicate the preformed biofilm. Matured S. aureus biofilm (grown for 24 h) was treated with compound 9h, and the rate of biofilm disruption was then assessed by the crystal violet staining assay.
Biofilm disruption: Briefly, S. aureus ATCC43300 (1 × 10^6 CFU/mL) was incubated in 96-well plates for 24 h to create biofilms. Next, the planktonic supernatant cells were removed. […] Then, the treated biofilm was determined by crystal violet assay. The OD values were measured at 575 nm. Biofilm disruption (%) = (ODcompound − ODblank)/(ODpositive control − ODblank) × 100%. All biological experiments were repeated three times.

[8] = test system: Gram-positive strains tested; experiment: MIC, summary over the Gram-positive strains tested; conditions: read-out: MICs against the Gram-positive strains tested, range over the Gram-positive panel
Protocol: All target derivatives were assessed for their in vitro antibacterial activities using a broth microdilution assay to test their minimum inhibitory concentrations (MICs) against six Gram-positive strains (S. aureus ATCC31007, S. aureus ATCC25923, S. aureus ATCC43300, E. faecalis ATCC29212, B. subtilis ATCC9372, and S. epidermidis ATCC12228) and four Gram-negative strains (A. baumannii ATCC19606, K. pneumonia ATCC10031, E. coli ATCC25922, and P. aeruginosa ATCC27853). These compounds were also evaluated for their hemolytic activities and membrane selectivity by determining their HC50 (the concentration required to lyse 50% of red blood cells) and SI (HC50/MICs) values, respectively, and vancomycin was used as the positive drug.
MICs of the derivatives were determined by the micro broth dilution method according to the American Clinical and Laboratory Standards Institute (CLSI) standards. Briefly, 2-fold serial dilutions of target compounds were prepared in 96-well plates containing TSB broth. An equal volume of bacterial suspension (10^6 CFU/mL) was then pipetted into each well, and the mixture was incubated at 37 °C for 24 h. […] All biological experiments were repeated three times.

CC(=O)c1c(OCCCNCCCN2CCN(C)CC2)c2c(c3c1OC(C)(CCC=C(C)C)C=C3)OC(C)(CCC=C(C)C)C=C2 (stereo not drawn) [Compound 9h, 1-(2,8-Dimethyl-2,8-bis(4-methylpent-3-en-1-yl)-5-(3-((3-(4-methylpiperazin-1-yl)propyl)amino)propoxy)-2H,8H-pyrano [2,3-f]chromen-6-yl)ethan-1-one]
MIC [1]: 2 µg/mL (≈ 3.15 µM) | MIC [2]: 1 µg/mL (≈ 1.58 µM) | MIC [3]: 4 µg/mL (≈ 6.31 µM) | MIC [4]: 2 µg/mL (≈ 3.15 µM) | MIC [5]: 8 µg/mL (≈ 12.6 µM) | MIC [6]: 4 µg/mL (≈ 6.31 µM) | time to complete bacterial killing (S. aureus ATCC43300): 4 h | killing of S. aureus (S. aureus ATCC43300; within 1 h): ≥ 99.9% | colony-forming unit (CFU) reduction (S. aureus ATCC43300; within 1 h, compared with the control): 5.95 log | eradication of preformed S. aureus biofilm ([7]; 8 μg/mL): about 19.83% | eradication of preformed S. aureus biofilm ([7]; 1× MIC (2 μg/mL)): 11.65% | MIC [8]: 0.5 to 8 µg/mL (≈ 0.789 to 12.6 µM)
